Measured values: patent publication US11439615B2, “Lipoxin and lipoxin analogue mediated neuroprotection and treatments” (University Health Network, priority 2017, dated 2022)

Columns and labels:
HT22 cells = experiment: Glutamate challenge of HT22 neuronal cells, viability; format: cell-based; conditions: for efficacy of neuroprotection / EC50: HT22 cells exposed to glutamate stress, nonlinear regression; for EC50: Mus musculus, HT-22, n=3/point, read-out: EC50 of neuroprotection; for viability of glutamate challenged HT22 cells: increasing concentrations up to 500 nM, 5 mM glutamate
Protocol: An in vitro assay to recapitulate key aspects of the acute KA model was established. In this case, unconcentrated ACM was applied to the glutamate sensitive neuronal cell line HT22 (66, 67). Glutamate challenge of 5 mM was titrated to induce 60-80% cell death (ie: 20-40% survival). […] The media was concentrated for proteomic analyses.
LXA4 and LXB4 promote direct neuroprotective signaling. To the inventor's knowledge, a role for lipoxins as direct neuroprotective or neurotrophic factors has not been reported. Although their established anti-inflammatory actions extend to the CNS (29-32). However, it was hypothesized they may have indirect protective effects. In order to test whether the protective activity was direct or indirect, LXA4 or LXB4 was applied to neuronal cells in an established in vitro assay.
There is no established receptor for LXB4. However, LXB4 shares structural homology with LXA4 and the DHA-derived resolving D2 (RvD2), which mediate their actions via FPR2 or GPR18 (74), respectively. Therefore, it was assessed whether specific receptor antagonists for FPR2 or GPR18 could block LXB4 mediated protection.
As shown in FIG. 14 lipoxin neuroprotection is dose responsive. Dose responses were generated for LXA4 (open circles) and LXB4 (closed circles) in HT22 cells exposed to glutamate stress, followed by nonlinear regression analyses.

primary RGCs = experiment: Primary RGCs under paraquat oxidative stress, cell and neurite survival; format: cell-based, rat; conditions: 1 μM, 24 hours of 30 μM PQ
Protocol: FIG. 5D is a graph showing Mitotracker red signal which indicates protection from […] membrane potential with LXB4 treatment (n=3). FIG. 5E is a series of images showing primary RGCs labeled with β3-tubulin extend an extensive network of neurites that disintegrate dramatically after 24 hours of 30 μM PQ. […] (Scale bar indicates 20 μm, *p<0.05, **p<0.01, bars are S.E.M.).
For astrocytes: Primary mature retinal astrocytes (RA) were isolated and cultured as previously described (46). Briefly, eyes were dissected out of adult Wistar rats and placed in ice-cold MEM-H17 media. Isolated retinas were digested by shaking in MEM-H17 containing papain and DNAse, followed by trituration to disperse cell-aggregates. When cultures reached confluence, the cells were placed on a rotating shaker for 6-8 hours to remove microglia and then re-plated. A glial-specific expression profile was confirmed by probing the cultures with a panel of glia microglia and neuronal markers (44). For RGCs: RGCs were purified using magnetic MicroBeads (Miltenyi Biotec, Germany) according to the manufacturer's protocol. Briefly; retinal cell suspensions were prepared from 8-10 day old rats and incubated with CD90.1 microbeads, and then carefully washed with DPBS/BSA buffer. The suspension was centrifuged at 130×g and the supernatant aspirated. Cells were then incubated with biotinylated depletion antibodies against microglia and endothelial cells. The labeled cell suspension was then incubated with magnetic Anti-Biotin MACSiBead™ Particles, and placed in a weak magnetic field. The pre-enriched cell suspension was centrifuged, and resuspended in fresh DPBS/BSA buffer and applied to a MACs MS separation column in the presence of a strong magnetic field to select for CD90.1-bound RGCs. To increase RGC purity, the eluted fraction was enriched over a second column. Purified RGCs were eluted and plated on poly-D-lysine coated dishes. The cells were cultured in Neurobasal-A media (Gibco) supplemented with 2% calf serum, B27, L-glutamine, BDNF, CNTF, forskolin and pen/strep.

[1] = system: retinal ganglion cell (RGC); experiment: Mouse chronic glaucoma model (circumlimbal suture ocular hypertension); format: in vivo; conditions: 0.1 μg/μL locally and systemically every other day from week 5, n=10; for loss of RGC (RBPMS flatmount counts): end of 12 weeks; for reduction of RGC function (pSTR) / reduction of retinal nerve fiber layer (RNFL) thickness: week 12
Protocol: LXA4 and LXB4 treatment were assessed and found to be efficacious in a mouse chronic glaucoma model. Chronic ocular hypertension was induced in weaned male C57BL/6 mice using a monocular circumlimbal suture. From week 5, they were treated with either PBS vehicle, LXA4 or LXB4 (0.1 μg/μL, locally and systemically, every other day) (shaded areas). Retinal function (electroretinogram) and structure (optical coherence tomography) were measured weekly in all groups for 12 weeks. At the end of 12 weeks, animals were euthanized and retinal ganglion cell (RGC) counts were analyzed on retinal flatmounts by RBPMS immunostaining. […] (n=10 per group, bars represent S.E.M.).

Compound | efficacy of neuroprotection (HT22 cells) | EC50 (HT22 cells) | viability of glutamate challenged HT22 cells (HT22 cells) | RGC survival following oxidative stress (primary RGCs) | loss of RGC (RBPMS flatmount counts) [1] | reduction of RGC function (pSTR) [1] | reduction of retinal nerve fiber layer (RNFL) thickness [1] | RGC neurite degeneration following PQ challenge (primary RGCs)
CCCCC[C@H](O)/C=C/C=C\C=C\C=C\[C@@H](O)[C@@H](O)CCCC(=O)O [LXA4, 5S,6R,15S-trihydroxy-7E,9E,11Z,13E-eicosatetraenoic acid] | 0.89 | 631 nM | significantly increased viability | significant rescue | −14.1±1.0% | −24.0±1.3% | −23.8±1.6% | –
CCCCC[C@H](O)[C@H](O)/C=C/C=C/C=C\C=C\[C@@H](O)CCCC(=O)O [LXB4, 5S,14R,15S-trihydroxy-6E,8Z,10E,12E-eicosatetraenoic acid] | 0.81 | 39.2 nM | significantly increased viability | significant rescue | −12.2±0.9% | −20.9±1.0% | −20.9±1.0% | significantly rescued
